Values quoted from earlier work, collected in patent US20220289705A1, “PROCESS FOR THE PREPARATION OF RIDINILAZOLE AND CRYSTALLINE FORMS THEREOF” (Summit (Oxford) Limited, priority 2019, published 2022).

Test system: Clostridioides difficile
Conditions: Phase 2 clinical trial; CDI recurrence

Row | SMILES | rates of recurrent disease [%]
1 | c1cc(-c2nc3cc(-c4ccc5[nH]c(-c6ccncc6)nc5c4)ccc3[nH]2)ccn1 [ridinilazole, 2,2′-di(pyridin-4-yl)-1H,1′H-5,5′-bibenzo[d]imidazole] | 14.3
2 | CN[C@H](CC(C)C)C(=O)N[C@H]1C(=O)N[C@@H](CC(N)=O)C(=O)N[C@H]2C(=O)N[C@H]3C(=O)N[C@H](C(=O)N[C@H](C(=O)O)c4cc(O)cc(O)c4-c4cc3ccc4O)[C@H](O)c3ccc(c(Cl)c3)Oc3cc2cc(c3O[C@@H]2O[C@H](CO)[C@@H](O)[C@H](O)[C@H]2O[C@H]2C[C@](C)(N)[C@H](O)[C@H](C)O2)Oc2ccc(cc2Cl)[C@H]1O [vancomycin] | 34.8
